These results are taken from patent publication US6887878B2, “KMST isoeugenol derivatives and pharmaceutical activity” (Ing-Jun Chen, priority 2003, dated 2005).

The test system of assay [1] is anesthetized rats. Put plainly: LPS-induced hypotension. Particulars: pretreatment, intravenous LPS. Type of assay: in vivo, Wistar rat. On the procedure:
(§1) In brief, Wistar rats weighing 250-300 g were anesthetized with pentobarbital sodium (50 mg kg^−1, i.p.). Following tracheal cannulation, systemic arterial BP and HR were recorded from the femoral artery by a pressure transducer (model P10EZ; Spectramed, Oxnard, Calif., U.S.A.) connected to a recorder (GOULD, Valley View, Ohio, Model P50). Body temperature was maintained at 37° C. by an electric heating pad. A femoral vein was cannulated for intravenous injection of drugs and LPS (10 mg kg^−1).

Assay [2] has as its system anesthetized rats. The experiment in a line: intra-cisternal injection and NTS microinjection, BP and HR. Type of assay: in vivo, rat. On the procedure: Intra-cisternal injections of KMST (0.3, 0.03 μmol), yohimbine [0.03 μmol), and clonidine (38 pmol), were performed in rats as described by Duan et al (1987). Briefly, rats weighing 250-300 g were anaesthetized with pentobarbital sodium (50 mg kg^−1, i.p.) and mounted in a David-Kopf stereotaxic instrument (Yeh J L. et al., Brain. Res. Bull., 30:641-648, 1993). The calvarium was exposed and a 1 mm diameter trephine hole was drilled 1.8 mm lateral to the coronary and 1.5 mm posterior to the sagittal sutures. A cannula (0.7 mm O.D.) connected to a Hamilton syringe (RN-705, 5051) by PE-50 was advanced 4.7 mm into the brain using the electrode carrier.
Rats were anesthetized and placed in a David-Kopf stereotaxic instrument. The cerebellum was exposed after removing the skin and occipital bone. The NTS coordinates were (reference to lambda) P 5-6 mm, L/R 0.5-1 mm, depth 6-7.5 mm (Wu et al., 1994). NTS injection sites were confirmed by decreasing BP and HR following micro-injection of 1% L-glutamate. […] Pre-treatment with clonidine was performed 15 min before administration of test agents. At the end of experiments, the animals were sacrificed. The brain was removed and sectioned for histological confirmation of the drug application site.

The test system of assay [3] is phenylephrine-induced contractions in rat thoracic aorta. The experiment in a line: LPS-induced vascular hyporeactivity: phenylephrine-induced contractions in rat thoracic aorta. Type of assay: in vivo, Wistar rat. Particulars: pD2 to phenylephrine.
Assay [4] relates to IL-1β, IL-6, IFN-γ and TNF-α. The experiment in a line: LPS-induced plasma cytokine immunoreactivity. Type of assay: in vivo, rat. The protocol: as §1
Blood was collected from venous cannula, injected into ice-cold heparinized Eppendorf tubes and centrifuged at 1500 rpm for 10 min at 4° C. Plasma supernatant was stored at −70° C. until analyzed. Solid phase enzyme immunoassay that specifically detects murine IL-1β, IL-6, IFN-γ and TNF-α was used with a detection limit of >10 pg/ml (Endogen, U.S.A). Pre-treatment with KMST and other agents was performed 15 minutes before intravenous injection of LPS. Blood was collected from venous cannula. Blood glucose was measured with a glucose test strip (Glucotide, Bayer, U.S.A) at 1, 3 and 5 hours.

For assay [5], the system named is lipid peroxidation in rat brain homogenate. The experiment in a line: lipid peroxidation initiated by Fe2+-ascorbic acid in rat brain homogenates (TBARS). Type of assay: biochemical. Particulars: rat brain homogenates; read-out: IC50 inhibiting lipid peroxidation initiated by Fe2+-ascorbic acid. On the procedure: Rat brain homogenate was made in 0.9% saline containing 10 mg tissue/ml. The rates of membrane lipid peroxidation were measured by the formation of thiobarbituric acid (TBA)-reactive substance (TBARS). Rat brain homogenates (1 ml) were incubated at 37° C. for 5 min with 10 μl of test compound or vehicle. […] After 30 min of incubation, the reaction was stopped by adding 0.1 ml of 0.2% BHT. TBA reagent was then added and the mixture was heated for 30 min in a boiling water bath. […] The amount of TBARS was quantified using the linear regression obtained from malondialdehyde (MDA) standards.

Assay [6] concerns epinephrine-induced human platelet aggregation. Conditions: Mustonen et al., 2000; read-out: estimated IC50 to inhibit epinephrine-induced platelet aggregation; cited from earlier work.
Setting [7] is: agent given after LPS injection (1 hr).
The mark [8] stands for this setting: agent given before LPS injection (30 min).

As a reminder, the IC50 is the point on the concentration scale where inhibition reaches its midpoint. `COC(=O)[C@@H]1[C@H]2C[C@H]3c4[nH]c5ccccc5c4CCN3C[C@@H]2CC[C@@H]1O` [Yohimbine]: the “aortic hyporeactivity and second prolonged hypotensive reaction induced by LPS” value in assay [1] is on record as “inhibited”. Besides, the “BP and HR after intra-cisternal injection and NTS microinjection” value in assay [2] (central administration) was “increased BP and HR”. Moreover, the clonidine-induced bradycardia entry in assay [2] (low dose (0.03 μmol)) is recorded as “did not inhibit”. Moreover, the clonidine-induced hypotension entry in assay [2] (low dose (0.03 μmol)) was “reduced”. Also, the “pD2 at 3rd hr” value in assay [3] (setting [7]) is on record as 6.12 ± 0.14; in assay [3] (setting [8]) it was 6.73 ± 0.33. Besides, the “pD2 at 5th hr” value in assay [3] (setting [7]) was found to be 5.13 ± 0.26; in assay [3] (setting [8]) it was 3.44 ± 0.22. Moreover, in assay [4] (1 mg kg−1, i.v., pretreatment), the “LPS-induced elevations of IL-1β, IL-6, IFN-γ and TNF-α levels” value is “reduced only IL-1β and TNF-α”. Also, the “LPS-induced production of IFN-γ” value in assay [4] (1 hour after LPS administration) was “insignificantly enhanced”. For the same compound, the IC50 in assay [5] is 11.1 ± 0.35 µM; in assay [6], 980 nM.
